Measured values: the supplement of paper PMC7287046

Key:
Conditions in all cases: exposure time: 72 h
U87 [1] = experiment: HSA synergy score (Combenefit); higher = more synergy
Experimental: (§1)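 The same 6x6 dose matrices of drug pairs on glioma cell lines (72 h, CellTiter-Glo viability normalised to DMSO, triplicate) were scored with Combenefit. The Loewe, Bliss and HSA synergy scores are given; paper thresholds are Loewe 7.8 and Bliss 2.5.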

SF539 [2] = experiment: as above
Experimental: as §1

U118 [3] = experiment: as above
Experimental: as §1

AM-38 [4] = experiment: as above
Experimental: as §1

T98G [5] = experiment: as above
Experimental: as §1

U251 [6] = experiment: as above
Experimental: as §1

KNS-42 [7] = experiment: as above
Experimental: as §1

SF268 [8] = experiment: as above
Experimental: as §1

SNB75 [9] = experiment: as above
Experimental: as §1

U87 [10] = experiment: Bliss synergy score (Combenefit); higher = more synergy; extreme values may be limits of the assay
Experimental: as §1

SF539 [11] = experiment: as above
Experimental: as §1

U118 [12] = experiment: as above
Experimental: as §1

AM-38 [13] = experiment: as above
Experimental: as §1

T98G [14] = experiment: as above
Experimental: as §1

U251 [15] = experiment: as above
Experimental: as §1

KNS-42 [16] = experiment: as above
Experimental: as §1

SF268 [17] = experiment: as above
Experimental: as §1

SNB75 [18] = experiment: as above
Experimental: as §1

U87 [19] = experiment: Loewe synergy score (Combenefit); higher = more synergy; extreme values may be limits of the assay
Experimental: as §1

SF539 [20] = experiment: as above
Experimental: as §1

U118 [21] = experiment: as above
Experimental: as §1

AM-38 [22] = experiment: as above
Experimental: as §1

T98G [23] = experiment: as above
Experimental: as §1

U251 [24] = experiment: as above
Experimental: as §1

KNS-42 [25] = experiment: as above
Experimental: as §1

SF268 [26] = experiment: as above
Experimental: as §1

SNB75 [27] = experiment: as above
Experimental: as §1

KNS42 = experiment: Chou-Talalay combination index (dimensionless); higher = less synergy (more antagonism)
Experimental: (§2)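 Glioma cell lines were treated for 72 h with a 6x6 matrix of two drugs, each in twofold dilutions with the top dose at the single-drug IC50. Viability was read by CellTiter-Glo and normalised to DMSO controls, in triplicate. The Chou-Talalay combination index was computed by the median effect principle; CI < 0.8 means synergy.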

U87 [28] = experiment: as above
Experimental: as §2

SF539 [29] = experiment: as above
Experimental: as §2

U118 [30] = experiment: as above
Experimental: as §2

AM38 = experiment: as above
Experimental: as §2

T98 = experiment: as above
Experimental: as §2

U251 [31] = experiment: as above
Experimental: as §2

SF268 [32] = experiment: as above
Experimental: as §2

SNB75 [33] = experiment: as above
Experimental: as §2

| SMILES | HSA synergy score (U87 [1]) | HSA synergy score (SF539 [2]) | HSA synergy score (U118 [3]) | HSA synergy score (AM-38 [4]) | HSA synergy score (T98G [5]) | HSA synergy score (U251 [6]) | HSA synergy score (KNS-42 [7]) | HSA synergy score (SF268 [8]) | HSA synergy score (SNB75 [9]) | Bliss synergy score (U87 [10]) | Bliss synergy score (SF539 [11]) | Bliss synergy score (U118 [12]) | Bliss synergy score (AM-38 [13]) | Bliss synergy score (T98G [14]) | Bliss synergy score (U251 [15]) | Bliss synergy score (KNS-42 [16]) | Bliss synergy score (SF268 [17]) | Bliss synergy score (SNB75 [18]) | Loewe synergy score (U87 [19]) | Loewe synergy score (SF539 [20]) | Loewe synergy score (U118 [21]) | Loewe synergy score (AM-38 [22]) | Loewe synergy score (T98G [23]) | Loewe synergy score (U251 [24]) | Loewe synergy score (KNS-42 [25]) | Loewe synergy score (SF268 [26]) | Loewe synergy score (SNB75 [27]) | Chou-Talalay combination index (KNS42) | Chou-Talalay combination index (U87 [28]) | Chou-Talalay combination index (SF539 [29]) | Chou-Talalay combination index (U118 [30]) | Chou-Talalay combination index (AM38) | Chou-Talalay combination index (T98) | Chou-Talalay combination index (U251 [31]) | Chou-Talalay combination index (SF268 [32]) | Chou-Talalay combination index (SNB75 [33]) |
| --- | --- | --- | --- | --- | --- | --- | --- | --- | --- | --- | --- | --- | --- | --- | --- | --- | --- | --- | --- | --- | --- | --- | --- | --- | --- | --- | --- | --- | --- | --- | --- | --- | --- | --- | --- | --- |
| Nc1ccn([C@@H]2O[C@H](CO)[C@@H](O)C2(F)F)c(=O)n1 [Gemcitabine] + CO[C@H]1C[C@@H]2CC[C@@H](C)[C@@](O)(O2)C(=O)C(=O)N2CCCC[C@H]2C(=O)O[C@H]([C@H](C)C[C@@H]2CC[C@@H](O)[C@H](OC)C2)CC(=O)[C@H](C)/C=C(\C)[C@@H](O)[C@@H](OC)C(=O)[C@H](C)C[C@H](C)/C=C/C=C/C=C/1C [Rapamycin] | 10 | 18.2 | 23 | 0.0506 | 1.52 | 4.63 | 0.15 | 18.5 | 4.52 | 1.89 | 4.47 | 2.62 | 0.0506 | 0 | 0.62 | 0 | 6.03 | 1.41 | 10 | 16.9 | 22 | 0.0506 | 1.27 | 4.63 | 0.0119 | 18.1 | 4.52 | 1.04 | 0.683 | 0.669 | 0.654 | 0.998 | 1.13 | 0.677 | 0.786 | 0.95 |
| CCC(=O)N1CCN(c2ccc(-n3c(=O)ccc4cnc5ccc(-c6cnc7ccccc7c6)cc5c43)cc2C(F)(F)F)CC1 [Torin1] + CCCCCCCCCCCC1=C(O)C(=O)C=C(O)C1=O [Embelin] | 3.43 | 2.69 | 2.41 | 2.04 | 0 | 6.4 | 5.07 | 2.48 | 7.31 | 2.62 | 0.761 | 1.08 | 0.037 | 0 | 2.83 | 0.0808 | 0.248 | 1.77 | 0.761 | 1.98 | 1.87 | 1.83 | 0 | 5.87 | 3.32 | 1.92 | 1.4 | 0.865 | 0.673 | 0.855 | 0.917 | 0.856 | 0.173 | 0.874 | 0.864 | 0.841 |
| C#Cc1cccc(Nc2ncnc3cc(OCCOC)c(OCCOC)cc23)c1 [Erlotinib] + CCCCCCCCCCCC1=C(O)C(=O)C=C(O)C1=O [Embelin] | 0 | 8.08 | 2.42 | 0 | 1.02 | 14.6 | 10.4 | 4.82 | 6.85 | 0 | 2.46 | 0.526 | 0 | 0 | 10.1 | 5.81 | 0.32 | 0.771 | 0 | 1.08 | 2.33 | 0 | 0.68 | 10.4 | 5.93 | 1.59 | 1.7 | 0.797 | 1.14 | 0.728 | 0.853 | 1.08 | 0.961 | 0.632 | 0.795 | 0.836 |
| CO[C@H]1C[C@@H]2CC[C@@H](C)[C@@](O)(O2)C(=O)C(=O)N2CCCC[C@H]2C(=O)O[C@H]([C@H](C)C[C@@H]2CC[C@@H](O)[C@H](OC)C2)CC(=O)[C@H](C)/C=C(\C)[C@@H](O)[C@@H](OC)C(=O)[C@H](C)C[C@H](C)/C=C/C=C/C=C/1C [Rapamycin] + C[C@@H](Oc1cc(-c2cnn(C3CCNCC3)c2)cnc1N)c1c(Cl)ccc(F)c1Cl [Crizotinib] | 19.4 | 3.78 | 5.07 | 0.00484 | 0 | 26.2 | 19.5 | 8.72 | 10.4 | 11.2 | 0 | 0 | 0 | 0 | 5.62 | 3.73 | 0.0254 | 0.128 | 16.4 | 3.24 | 5.03 | 0 | 0 | 26 | 18.6 | 8.2 | 9.67 | 0.807 | 0.683 | 0.968 | 1 | 1.07 | 1.1 | 0.715 | 0.928 | 0.943 |
| CC(=O)O[C@@]12CO[C@@H]1C[C@H](O)[C@@]1(C)C(=O)[C@H](O)C3=C(C)[C@@H](OC(=O)[C@H](O)[C@@H](NC(=O)OC(C)(C)C)c4ccccc4)C[C@@](O)([C@@H](OC(=O)c4ccccc4)[C@H]21)C3(C)C [Docetaxel] + CCC(=O)N1CCN(c2ccc(-n3c(=O)ccc4cnc5ccc(-c6cnc7ccccc7c6)cc5c43)cc2C(F)(F)F)CC1 [Torin1] | 28.7 | 2.76 | 4.14 | 9.71 | 9.53 | 6.14 | 14.4 | 12.8 | 3.38 | 14 | 0 | 0.102 | 0 | 0.32 | 0.704 | 0.0301 | 2.06 | 0.14 | 20.6 | 2.76 | 1.75 | 3.28 | 8.3 | 5.9 | 10.2 | 6.57 | 1.3 | 0.95 | 0.448 | 0.976 | 0.949 | 0.895 | 0.53 | 0.732 | 0.8 | 0.749 |
| CO[C@H]1C[C@@H]2CC[C@@H](C)[C@@](O)(O2)C(=O)C(=O)N2CCCC[C@H]2C(=O)O[C@H]([C@H](C)C[C@@H]2CC[C@@H](O)[C@H](OC)C2)CC(=O)[C@H](C)/C=C(\C)[C@@H](O)[C@@H](OC)C(=O)[C@H](C)C[C@H](C)/C=C/C=C/C=C/1C [Rapamycin] + CCOc1nc(NC(=O)Cc2cc(OC)ccc2OC)cc(N)c1C#N [JNK inhibitor VIII] | 5.37 | 0.625 | 2.12 | 3.73 | 0.183 | 8.47 | 6.4 | 0.46 | 19.9 | 4.63 | 0 | 0 | 0 | 0.183 | 6.55 | 1.98 | 0 | 0.0362 | 0.748 | 0.362 | 1.75 | 3.73 | 0.183 | 5.59 | 6.4 | 0.192 | 16.7 | 0.843 | 0.776 | 1.09 | 1.1 | 0.906 | 0.917 | 0.74 | 1.09 | 0.706 |
| CCCCCCCCCCCC1=C(O)C(=O)C=C(O)C1=O [Embelin] + O=c1[nH]c2ccccc2n1C1CCN(Cc2ccc(-c3[nH]c4cc5ncnc5cc4nc3-c3ccccc3)cc2)CC1 [Akt inhibitor VIII] | 3.6 | 2.02 | 2.72 | 2.45 | 5.06 | 0.813 | 21.8 | 6.9 | 5.56 | 3.16 | 0.0542 | 1.02 | 1.12 | 1.2 | 0.813 | 10.1 | 2.64 | 1.95 | 1.72 | 0.853 | 1.18 | 0.351 | 3.51 | 0.813 | 21.4 | 1.14 | 1.11 | 0.589 | 0.641 | 1.03 | 0.946 | 0.773 | 0.226 | 0.839 | 0.946 | 0.773 |
| CC(=O)O[C@@]12CO[C@@H]1C[C@H](O)[C@@]1(C)C(=O)[C@H](O)C3=C(C)[C@@H](OC(=O)[C@H](O)[C@@H](NC(=O)OC(C)(C)C)c4ccccc4)C[C@@](O)([C@@H](OC(=O)c4ccccc4)[C@H]21)C3(C)C [Docetaxel] + N#CC(c1ccnc(NCCc2cccnc2)n1)c1nc2ccccc2s1 [AS601245] | 1.81 | 7.49 | 2.85 | 0.465 | 13 | 8.45 | 11.3 | 4.46 | 10.1 | 0.347 | 0.511 | 0.0703 | 0.0376 | 4.9 | 5.06 | 3.75 | 0.207 | 2.39 | 0.835 | 2.08 | 0.96 | 0.0158 | 10.3 | 0.486 | 3.02 | 0.451 | 5.22 | 0.832 | 0.00672 | 0.69 | 0.875 | 1.13 | 0.553 | 0.673 | 0.887 | 0.738 |
